# According to ChEMBL document CHEMBL5380853, “Lead Optimization of Androgen Receptor-HSP27 Disrupting Agents in Glioblastoma” (J Med Chem, 2023):
# Calls of active or inactive are those of the source. The calls are words filed in the database; no cut-off is given here.
# Tests used:
# U-87 MG = assay: Growth inhibition of AR-overexpressing human U87 cells measured after 48 hrs by MTT assay; assay type: functional, cell-based, U-87MG ATCC
# T98G [1] = assay: Growth inhibition of AR-overexpressing human T98G cells measured after 48 hrs by MTT assay; assay type: functional, cell-based
# T98G [2] = assay: Down regulation of androgen receptor activity in AR-overexpressing human T98G cells at 100 nM measured after 12 hrs by Western blotting analysis; assay type: functional, cell-based
# [3] = Apparent half life in mouse plasma at 20 mg/kg, ip measured for 24 hrs by LC-MS/MS analysis; assay type: ADME, organism-based; details: plasma
IC50 (U-87 MG),half-life [3],SMILES,IC50 (T98G [1]),Activity (T98G [2])
1710 nM,–,COc1ccc(OC)c(COc2cc(NC(=O)c3ccc(C(F)(F)F)cc3C(F)(F)F)ccc2NS(C)(=O)=O)c1,2360 nM,–
> 10000 nM,–,COc1ccc(OC)c(COc2cc(NC(=O)c3ccno3)ccc2NS(C)(=O)=O)c1,3960 nM,Active
3370 nM,–,COc1ccc(OC)c(COc2cc(NC(=O)c3cc(OC)c(OC)c(OC)c3)ccc2NS(C)(=O)=O)c1,218 nM,–
> 10000 nM,–,COc1ccc(OC)c(COc2cc(NC(=O)CCCC(=O)Nc3ccc(NS(C)(=O)=O)c(OCc4cc(OC)ccc4OC)c3)ccc2NS(C)(=O)=O)c1,> 10000 nM,Active
8310 nM,–,COc1cccc(C(=O)Nc2ccc(NS(C)(=O)=O)c(OCc3cc(OC)ccc3OC)c2)c1,220 nM,–
–,1.5 h,COc1ccc(C(=O)Nc2ccc(NS(C)(=O)=O)c(OCc3cc(OC)ccc3OC)c2)cc1,–,–
2040 nM,–,CCCCCC(=O)Nc1ccc(NS(C)(=O)=O)c(OCc2cc(OC)ccc2OC)c1,1190 nM,–
92 nM,–,COc1ccc(OC)c(COc2cc(NC(=O)c3ccc(SC)cc3)ccc2NS(C)(=O)=O)c1,29 nM,Active
3830 nM,–,CCOc1cccc(C(=O)Nc2ccc(NS(C)(=O)=O)c(OCc3cc(OC)ccc3OC)c2)c1,38.4 nM,–
5230 nM,–,COc1ccc(OC)c(COc2cc(NC(=O)OCCOC(=O)Nc3ccc(NS(C)(=O)=O)c(OCc4cc(OC)ccc4OC)c3)ccc2NS(C)(=O)=O)c1,2280 nM,–
> 10000 nM,–,COc1ccc(OC)c(COc2cc(NC(=O)c3cccc(C)c3)ccc2NS(C)(=O)=O)c1,422 nM,–
> 10000 nM,–,COc1ccc(OC)c(COc2cc(NC(=O)c3cccc(Cl)c3)ccc2NS(C)(=O)=O)c1,65 nM,–
2080 nM,–,COc1ccc(OC)c(COc2cc(NC(=O)c3ccc(C(F)(F)F)cc3)ccc2NS(C)(=O)=O)c1,> 10000 nM,–
220 nM,–,COc1ccc(OC)c(COc2cc(NC(=O)c3ccc(OC)c(OC)c3)ccc2NS(C)(=O)=O)c1,90 nM,–
> 10000 nM,–,COc1ccc(OC)c(COc2cc(NC(=O)c3cccs3)ccc2NS(C)(=O)=O)c1,3430 nM,Active
2490 nM,–,COc1ccc(OC)c(COc2cc(NC(=O)c3ccc(OC(F)(F)F)cc3)ccc2NS(C)(=O)=O)c1,899 nM,Active
> 10000 nM,–,COc1ccc(OC)c(COc2cc(NC(=O)COCC(=O)Nc3ccc(NS(C)(=O)=O)c(OCc4cc(OC)ccc4OC)c3)ccc2NS(C)(=O)=O)c1,> 10000 nM,–
208 nM,–,COc1ccc(OC)c(COc2cc(NC(=O)c3ccc(Cl)cc3)ccc2NS(C)(=O)=O)c1,77 nM,–
> 10000 nM,–,COc1ccc(OC)c(COc2cc(NC(=O)c3ccc([N+](=O)[O-])cc3)ccc2NS(C)(=O)=O)c1,1190 nM,Active
91 nM,–,COc1ccc(OC)c(COc2cc(NC(=O)c3ccc(C)cc3)ccc2NS(C)(=O)=O)c1,213 nM,–
> 10000 nM,–,COc1ccc(OC)c(COc2cc(NC(=O)OCCOCCOCCOC(=O)Nc3ccc(NS(C)(=O)=O)c(OCc4cc(OC)ccc4OC)c3)ccc2NS(C)(=O)=O)c1,5470 nM,–

IC50 (U-87 MG),half-life [3],SMILES,IC50 (T98G [1]),Activity (T98G [2])
> 10000 nM,–,COc1ccc(OC)c(COc2cc(NC(=O)c3ccc(Cl)c([N+](=O)[O-])c3)ccc2NS(C)(=O)=O)c1,570 nM,–
1190 nM,–,COc1ccc(OC)c(COc2cc(NC(=O)c3ccccc3C)ccc2NS(C)(=O)=O)c1,306 nM,Active
> 10000 nM,–,COc1ccc(OC)c(COc2cc(NC(=O)c3ccc(N(C)C)cc3)ccc2NS(C)(=O)=O)c1,1910 nM,–
998 nM,–,COc1ccc(OC)c(COc2cc(NC(=O)c3cccc(C(F)(F)F)c3)ccc2NS(C)(=O)=O)c1,423 nM,–
1890 nM,–,COc1ccc(OC)c(COc2cc(NC(=O)c3cccc(C#N)c3)ccc2NS(C)(=O)=O)c1,5030 nM,–
2880 nM,–,COc1ccc(OC)c(COc2cc(NC(=O)c3ccc(C#N)cc3)ccc2NS(C)(=O)=O)c1,790 nM,–
2630 nM,–,COc1ccc(OC)c(COc2cc(NC(=O)c3ccc(C)c([N+](=O)[O-])c3)ccc2NS(C)(=O)=O)c1,3690 nM,–
46 nM,–,COc1ccc(OC)c(COc2cc(NC(=O)c3ccc(I)cc3)ccc2NS(C)(=O)=O)c1,48 nM,–
476 nM,–,COc1ccc(OC)c(COc2cc(NC(=O)c3ccc(Cl)c(Cl)c3)ccc2NS(C)(=O)=O)c1,2380 nM,–
1500 nM,–,COc1ccc(OC)c(COc2cc(NC(=O)c3ccc(C(F)(F)F)c(F)c3)ccc2NS(C)(=O)=O)c1,4770 nM,–
530 nM,–,COc1ccc(OC)c(COc2cc(NC(=O)c3cccc(Br)c3)ccc2NS(C)(=O)=O)c1,2670 nM,Active
155 nM,–,COc1ccc(OC)c(COc2cc(NC(=O)c3ccc(Br)cc3)ccc2NS(C)(=O)=O)c1,148 nM,–
6910 nM,–,COc1ccc(OC)c(COc2cc(NC(=O)c3ccc(-c4ccccc4)cc3)ccc2NS(C)(=O)=O)c1,455 nM,–
1870 nM,–,CCc1ccc(C(=O)Nc2ccc(NS(C)(=O)=O)c(OCc3cc(OC)ccc3OC)c2)cc1,3850 nM,–
2650 nM,–,COc1ccc(OC)c(COc2cc(NC(=O)c3cc(C(F)(F)F)cc(C(F)(F)F)c3)ccc2NS(C)(=O)=O)c1,1040 nM,–
> 10000 nM,–,COc1ccc(OC)c(COc2cc(NC(=O)c3ccc(NC(=O)COCC(=O)Nc4ccc(C(=O)Nc5ccc(NS(C)(=O)=O)c(OCc6cc(OC)ccc6OC)c5)cc4)cc3)ccc2NS(C)(=O)=O)c1,> 10000 nM,–
150 nM,–,COc1ccc(OC)c(COc2cc(NC(=O)c3cc(Cl)cc(Cl)c3)ccc2NS(C)(=O)=O)c1,97 nM,–
210 nM,–,COc1ccc(OC)c(COc2cc(NC(=O)c3cccc(I)c3)ccc2NS(C)(=O)=O)c1,130 nM,–
2060 nM,–,COc1ccc(OC)c(COc2cc(NC(=O)c3ccc(N)cc3)ccc2NS(C)(=O)=O)c1,3610 nM,–
2040 nM,–,COc1ccc(OC)c(COc2cc(NC(=O)c3cccc([N+](=O)[O-])c3)ccc2NS(C)(=O)=O)c1,5070 nM,–
